From US20230235374A1, “High Throughput Assays for Detecting Translation Readthrough Inducers” (The Trustees of the University of Pennsylvania, priority 2021, published 2023)

What was measured:
[1] = target: T1, eRF1 (Saccharomyces cerevisiae, UniProt P12385); assay: [3H]-AzAt photoaffinity labeling of isolated eRF1; type: binding; conditions: FIG. 2E
T1 construct: made in house; host or cells: E. coli BL21(DE3) CodonPlus
Protocol: (§1) Photoaffinity labeling with [^3H]-AzAt. Samples in Buffer 4, typically 20 μL, were incubated in the dark (20 min for Stop-POST5 and 80S-IRES complexes, 2 min for release factors) with various concentrations of [^3H]-AzAt at 37° C., transferred to a UV-transparent cuvette which was covered with parafilm to prevent evaporation, and irradiated in a Rayonet photochemical reactor equipped with 300 nm UV lamps for 5 min at room temperature. This was followed by quenching with 2 mM DTT at 37° C. for 5 min under ambient light. The irradiation time gave complete photolysis of the phenyl azide moiety in AzAt. Photolysis was also complete at 5 min in the presence of 1 mM ataluren, ruling out internal filtering effects.
(§2) Photoaffinity labeling of release factors. Solutions containing eRF1 (10 μM), eRF3 (20 μM) and 1 mM GMPPMP were pre-incubated at 37° C. for 2 min to form the ternary complex prior to photolabeling with [^3H]-AzAt. After quenching, reaction mixtures were loaded onto a 4-15% mini protean SDS-PAGE gel for protein separation and isolation. Gel slices containing eRF1 or eRF3, as shown by Coomassie Blue R250 staining, were crushed and the radioactivity was extracted in extraction buffer (50 mM Tris-HCl, 150 mM NaCl, and 0.1 mM EDTA; pH 7.5) by vigorously shaking at 70° C. for 30 min. The data fitting was performed using the software Prism. Labeling results of eRF1 alone and within the eRF1.eRF3.GDPNP complex were fit with a one-site binding model and a two-site binding model, respectively.

[2] = Solubility in aqueous medium; type: physicochemical
[3] = tested on: rRNA fragments I-IV of Stop-POST5; assay: RNaseH fragment assay, Stop-POST5; type: binding, shrimp (Artemia salina)
Protocol: (§3) RNaseH Fragment Assay. Total RNA was prepared from the ^3H-AzAt photoaffinity labeled ribosome by phenol-chloroform extraction. RNA: DNA duplexes were formed by incubating total RNA (0.2 μM) with an oligonucleotide pair (1 μM of each, sequences shown Table 1), flanking a specific RNA region, in 22.8 μL of water at 95° C. for 2 min, followed by annealing at 50° C. for 30 s and quenching on ice. Six units (1.2 μL) of RNase H (NEB) and 6 μl of 5×RNase H Reaction Buffer were next added to the RNA: DNA duplex and incubated at 37° C. for 1 hour, followed by phenol-chloroform extraction of RNA. The digested RNA was separated on 12% TBE-Urea PAGE gel, and the target band along with the adjacent upper and bottom gels were sliced by a 2 mm gel cutter. The gel slices were crushed and the ^3H labeled rRNA fragment was extracted in water by vigorously shaking at 70° C. for 30 min, or by overnight extraction in elution buffer (0.3M sodium acetate, 0.25% SDS, 1 mM EDTA). The slurry was removed by centrifugation and the eluted ^3H labeled rRNA in the supernatant was quantified. The stoichiometry of AzAt photoincorporation was calculated based on a gel recovery yield of 20±2%, determined using an authentic sample of [^3H]-Gln-tRNA^Gln.
Testing the functional pertinence of AzAt photolabeling of 18S A1195, 28S-A3093, 28S-A2672, and 28S-2669. An RNAse H fragment assay was employed to determine whether the potential functionally significant sites identified by LASER-seq correspond to ataluren binding sites relevant for termination activity. In this assay, oligonucleotide hybridization, RNase H digestion and polyacrylamide gel electrophoresis (PAGE) were used to determine the stoichiometry of [^3H]-AzAt photoincorporation into the three rRNA fragments that together include the four nucleotides of interest: Fragment I, 18S-A1195; Fragment II, 26S-A3093; Fragment III, 26S-A2669 and 26S-A2672 (Table 5). The separate addition of four potential competitors of AzAt binding (eRF1 alone, the stably bound eRF1.eRF3.GDPNP complex, ataluren, and the ataluren-like TRID GJ072) was used to test how these affected such photoincorporation. These experiments, the results of which are summarized in Table 5, were performed at two different AzAt concentrations. eRF1 and eRF1.eRF3.GDPNP effects were measured using 300 μM AzAt, paralleling the LASER-Seq PAL experiments.

[4] = tested on: Small RNAs within Stop-POST5 complex; assay: AzAt photoincorporation into small RNAs (urea-PAGE, RNAse H fragments); type: binding, shrimp (Artemia salina)
Protocol: FIG. 11 illustrates 8% Urea-PAGE resolution of small RNAs.
as §1
Stop-POST5 and 80S-IRES complexes. 1 μM solutions of either Stop-POST5 or 80S-S.IRES, determined by A260, were photolabeled by [^3H]-AzAt. The sample was then either directly purified by ultracentrifugation through a sucrose cushion to determine the photoincorporation stoichiometry in the complex, or subjected to phenol/chloroform extraction to determine the photoincorporation stoichiometry in the total RNA. To determine the photoincorporation background arising from incomplete removal of noncovalently bound photolyzed AzAt, AzAt was prephotolysed for 5 min before adding to the complex, followed by the 20 min incubation in dark at 37° C. and subsequent sucrose cushion purification or RNA extraction as described above.
as §3
Small RNAs. AzAt photoincorporation into the 4 small RNAs (CrPV-IRES, 5.8S rRNA, 5S rRNA, and tRNA) contained within POST5 was examined by one-dimensional (1D) urea-PAGE analysis, by RNA-Seq, and by RNAse H fragment assay (FIG. 11).

[5] = target: T2, eRF1.eRF3.GDPNP ternary complex (Saccharomyces cerevisiae, UniProt P12385); assay: [3H]-AzAt photoaffinity labeling of eRF1 within ternary complex; type: binding; conditions: compared with isolated eRF1, FIG. 2E
T2 construct: made in house; host or cells: E. coli BL21(DE3) CodonPlus
T2 sequence (P05453 166-685): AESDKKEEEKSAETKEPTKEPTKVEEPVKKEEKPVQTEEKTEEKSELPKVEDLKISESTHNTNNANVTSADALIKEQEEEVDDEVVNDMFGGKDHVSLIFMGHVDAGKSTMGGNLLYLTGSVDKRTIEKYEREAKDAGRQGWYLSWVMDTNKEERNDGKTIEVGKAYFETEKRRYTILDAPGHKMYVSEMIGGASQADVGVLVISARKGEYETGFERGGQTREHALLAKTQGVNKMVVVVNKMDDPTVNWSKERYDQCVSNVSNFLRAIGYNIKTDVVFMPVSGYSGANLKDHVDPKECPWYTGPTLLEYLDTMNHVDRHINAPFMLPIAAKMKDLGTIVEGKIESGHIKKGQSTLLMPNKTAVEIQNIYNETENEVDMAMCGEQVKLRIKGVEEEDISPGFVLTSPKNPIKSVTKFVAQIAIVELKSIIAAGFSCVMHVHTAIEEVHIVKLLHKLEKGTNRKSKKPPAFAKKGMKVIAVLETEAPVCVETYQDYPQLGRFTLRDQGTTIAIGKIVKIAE
T2 sequence (P12385 whole entry): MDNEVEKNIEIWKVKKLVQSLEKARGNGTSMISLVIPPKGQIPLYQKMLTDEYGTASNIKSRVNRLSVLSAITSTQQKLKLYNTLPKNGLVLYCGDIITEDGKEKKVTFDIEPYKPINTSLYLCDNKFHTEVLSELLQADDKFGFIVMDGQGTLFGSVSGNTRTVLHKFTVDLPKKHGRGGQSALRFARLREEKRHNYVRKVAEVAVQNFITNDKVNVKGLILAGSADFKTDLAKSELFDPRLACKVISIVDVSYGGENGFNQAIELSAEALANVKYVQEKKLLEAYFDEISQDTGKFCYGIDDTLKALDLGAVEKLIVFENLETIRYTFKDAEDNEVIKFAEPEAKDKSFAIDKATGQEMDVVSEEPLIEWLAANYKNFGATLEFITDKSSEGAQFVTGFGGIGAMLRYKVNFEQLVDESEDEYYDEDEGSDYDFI
Protocol: as §1, §2

[6] = tested on: Stop-POST5 / Stop-PRE6 complex; assay: High throughput translocation assay (proflavin fluorescence, plate reader); type: biochemical; conditions: FIG. 17B
Text: FIGS. 17A, 17B, 17C, and 17D are graphs showing data from the high throughput translocation assay. FIG. 17A is a graph showing a stable prf-fluorescence increase at different G418 concentrations [G418] due to eEF2-dependent conversion of a Stop-PRE6 complex to a Stop-POST6 complex, resulting from the increase in quantum yield of Trp-tRNA(prf). FIG. 17B is a graph showing fluorescence results in FIG. 17A as a function of [G418]. FIG. 17C is a graph showing the kinetics of Stop-PRE6 translocation, measured at 1 μM eEF2 and 2 μM G418. FIG. 17D is a graph showing the kinetics of Trp-PRE6 translocation to Trp-POST6 measured at 0.05 μM of eEF2 in the absence of G418.
Different proflavin-labeled aa-tRNAs, denoted aa-tRNA(prf)s, were used to monitor the elongation cycle changes by fluorescence change at 511 nm following excitation at 458 nm (Ng et al. PNAS, 118(2) e2020599118, 1-10 (2021)). Binding of Trp-TC(prf) to a Trp-POST5 complex in the presence of eEF2 lead to a biphasic increase, with the first, more rapid phase corresponding to formation of Trp-PRE6, followed by a slower, eEF2-dependent phase corresponding to conversion of Trp-PRE6 into Trp-POST6. The translocation step was monitored using a plate-reader assay for both G418-stimulated readthrough of Stop-POST5 (FIGS. 17A-17C) and cognate elongation of Trp-POST5 (FIG. 17D) by adjustment of [eEF2].

[7] = Stop-POST5, PAL, 30 μM AzAt, alone or plus Ataluren 500 μM / GJ072 150 μM named as label
[8] = PAL, 30 μM AzAt, alone or plus competing ligand named as label

T1 sequence (P12385 whole entry): as above

With `COc1cccc(-n2c(SCC(=O)Nc3ccc(F)cc3)nnc2-c2ccccn2)c1` [GJ072] the “effect on AzAt photoincorporation into isolated eRF1” value [1] was “substantially inhibited”, the “solubility in aqueous medium” value [2] was “limited solubility” and the “effect on AzAt photoincorporation into Fragment IV (26S A1437/A1438)” value [3] was “neither ataluren nor GJ072 reduce labeling at all”. The “effect on AzAt photoincorporation into Fragment I (18S-A1195)” value ([3]; Stop-POST5) was “strongly inhibited”, the “effect on AzAt photoincorporation into Fragment II (A3093)” value ([3]; Stop-POST5) was “stimulated” and the “effect on AzAt photoincorporation into Fragment III (A2669/A2672)” value ([3]; Stop-POST5) was “only weakly inhibited”. The “Photoincorporation yields into 18S A1195/ I: 18S 1151-1206” value [3, 7] was 0.10 ± 0.01 mole %, the “Photoincorporation yields into 26S-A2669:A2672/ III: 26S 2638-2702” value [3, 7] was 0.07 ± 0.01 mole % and the “Photoincorporation yields into 26S-A3093/ II: 26S 3069-3113” value [3, 7] was 0.07 ± 0.01 mole %. The “Photoincorporation yields into RNAse H Fragment IV: 26S 1413-1476” value [3, 7] was 0.019 ± 0.004%, the “Photoincorporation yields into CrPV-IRES nts1-155” value ([4]; PAL, 30 μM AzAt, alone (AzAt) or plus competing ligand named as label (Ataluren 500 μM, GJ072 150 μM)) was 0.51 ± 0.03 mole % and the “Photoincorporation yields into 5S rRNA” value [4, 8] was 0.15 ± 0.01 mole %. For the same compound, the “Photoincorporation yields into 5.8S rRNA” value [4, 8] was 0.19 ± 0.07 mole %, the “Photoincorporation yields into CrPV-IRES All” value [4, 8] was 0.59 ± 0.14 mole % and the “Photoincorporation yields into CrPV-IRES nts156-221” value [4, 8] was 0.22 ± 0.05 mole %. The “Photoincorporation yields into CrPV-IRES nts222-278” value [4, 8] was 0.09 ± 0.05 mole %, the “Photoincorporation yields into tRNA^Gln” value [4, 8] was 0.25 ± 0.03 mole % and the “effect on AzAt labeling of CrPV-IRES fragments 1-155 and 156-221” value ([4]; RNAse H fragment assay) was “no clearly significant changes”. The “effect on AzAt labeling of small RNAs” value ([4]; none clearly significant) was “generally small reductions” and the “inhibition of AzAt photoincorporation into eRF1 within the ternary complex” value [5] was “less marked”.

For `CN[C@@H]1[C@@H](O)[C@@H](O[C@@H]2[C@@H](O)[C@H](O[C@H]3O[C@H]([C@@H](C)O)[C@@H](O)[C@H](O)[C@H]3N)[C@@H](N)C[C@H]2N)OC[C@]1(C)O` [G418], the “EC50 value, G418-stimulated readthrough translocation” value [6] was “fully consistent with previous determination”.
